Measurements taken from patent publication US20220387375A1, “TRPV1 ACTIVATION-MODULATING COMPLEX MIXTURES OF CANNABINOIDS AND/OR TERPENES” (GBS Global Biopharma, Inc., priority 2018, published 2022).

Legend:
TRPA1 = molecular target: T1, TRPA1 (Homo sapiens, UniProt O75762); test: Bulk calcium assay (Fluo-4) in HEK cells overexpressing TRPA1; format: cell-based
T1 construct: host or cells: HEK TRex293
Protocol: (§1) HEK TRexTRPV1 were cultured in DMEM, 10% Fetal Bovine Serum, 2 mM Lglutamine, 10 μg/ml Blasticidin (Calbiochem, San Diego Calif.), 400 μg/ml Zeocin (InvivoGen, San Diego Calif.), where indicated transgene expression was induced using 1 μg/ml Tetracycline for 16-24 hrs. Unless otherwise indicated, basal expression of TRPV1 without induction was sufficient for these studies, and comparisons were made to untransfected HEK where needed. HEKTRex293 over-expressing human TRPV2, human TRPA1 and human TRPM8 were obtained from SB Drug Discovery (Glasgow, Scotland) and cultured as described above. The cannabinoids and terpenes were assayed in HEK cells that have been transfected with the TRPV1 ion channel protein. These cells are called HEK293-V1 cells.
(§2) Cells were washed and incubated with 0.2 micromolar Fluo-4 for 30 minutes at 37° C. in a standard modified Ringer's solution of the following composition (in mM): NaCl 145, KCl 2.8, CsCl 10, CaCl2 10, MgCl2 2, glucose 10, Hepes·NaOH 10, pH 7.4, 330 mOsm. Cells were transferred to 96-well plates at 50,000 cells/well and stimulated as indicated. Calcium signals were acquired using a Flexstation 3 (Molecular Devices, Sunnydale, USA). Data was analyzed using SoftMax® Pro 5 (Molecular Devices). Where indicated, nomically calcium-free external conditions were achieved by the preparation of 0 mM CaCl2 Ringer solution containing 1 mM EGTA.
(§3) Calcium responses mediated by TRPA1, TRPM8, TRPV2, and TRPV1 were tested by calcium assay in the cell culture system. Cells were washed and incubated with 0.2 μM fluo-4 acetoxymethyl ester (“Fluo-4”) for 30 minutes at 37° C. in a standard modified Ringer's solution of the following composition (in mM): NaCl 145, KCl 2.8, CsCl 10, CaCl2 10, MgCl2 2, glucose 10, Hepes·NaOH 10, pH 7.4, 330 mOsm. Cells were transferred to 96-well plates at 50,000 cells/well and stimulated with 10 μM myrcene diluted in DMSO. Vehicle (DMSO) was used as a negative control. Vehicle traces were subtracted from the myrcene traces for each cell line.
(§4) The potential for different cannabinoids to target specific TRP channels, or to co-target more than one channel type, are of potential therapeutic options for the treatment and management of pain. Comparison of the impacts of a variety of cannabinoid on overexpression systems for TRPV2, TRPM8, and TRPA1 were performed in a side-by-side fashion, under bulk calcium assays where the measurements with each trace representing averaged triplicates of 100,000 cells per sample. As shown in FIGS. 41-43 and summarized in Table 3, there are clear differences in responsiveness between cannabinoids at a single channel type than between channel types to a given cannabinoid.

TRPV2 = molecular target: T2, TRPV2 (Homo sapiens, UniProt Q9Y5S1); test: Bulk calcium assay (Fluo-4) in HEK cells overexpressing TRPV2; format: cell-based
T2 construct: host or cells: HEK TRex293
T2 sequence (Q9Y5S1 1-764): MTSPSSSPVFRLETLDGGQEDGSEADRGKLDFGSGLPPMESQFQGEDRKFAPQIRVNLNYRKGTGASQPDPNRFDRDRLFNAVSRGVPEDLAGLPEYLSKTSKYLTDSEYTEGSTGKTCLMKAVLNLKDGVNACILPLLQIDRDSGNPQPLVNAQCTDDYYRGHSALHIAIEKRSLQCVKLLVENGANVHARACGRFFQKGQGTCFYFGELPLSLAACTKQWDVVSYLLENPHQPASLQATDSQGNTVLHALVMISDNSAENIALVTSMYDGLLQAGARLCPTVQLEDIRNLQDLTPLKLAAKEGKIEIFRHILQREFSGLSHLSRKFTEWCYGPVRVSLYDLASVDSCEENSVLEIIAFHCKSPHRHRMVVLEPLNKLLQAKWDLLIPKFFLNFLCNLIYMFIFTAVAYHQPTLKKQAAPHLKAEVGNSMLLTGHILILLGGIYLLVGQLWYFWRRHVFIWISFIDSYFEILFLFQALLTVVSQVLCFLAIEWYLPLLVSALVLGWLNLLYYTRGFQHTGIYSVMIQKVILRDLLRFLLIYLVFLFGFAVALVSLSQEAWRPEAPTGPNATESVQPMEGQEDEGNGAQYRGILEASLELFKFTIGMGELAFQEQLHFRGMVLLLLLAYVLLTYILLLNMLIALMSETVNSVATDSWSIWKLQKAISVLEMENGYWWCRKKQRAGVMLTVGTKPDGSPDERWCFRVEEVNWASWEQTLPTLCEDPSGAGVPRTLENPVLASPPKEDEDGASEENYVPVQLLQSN
Protocol: as §1, §2, §3, §4

T1 sequence (O75762 whole entry): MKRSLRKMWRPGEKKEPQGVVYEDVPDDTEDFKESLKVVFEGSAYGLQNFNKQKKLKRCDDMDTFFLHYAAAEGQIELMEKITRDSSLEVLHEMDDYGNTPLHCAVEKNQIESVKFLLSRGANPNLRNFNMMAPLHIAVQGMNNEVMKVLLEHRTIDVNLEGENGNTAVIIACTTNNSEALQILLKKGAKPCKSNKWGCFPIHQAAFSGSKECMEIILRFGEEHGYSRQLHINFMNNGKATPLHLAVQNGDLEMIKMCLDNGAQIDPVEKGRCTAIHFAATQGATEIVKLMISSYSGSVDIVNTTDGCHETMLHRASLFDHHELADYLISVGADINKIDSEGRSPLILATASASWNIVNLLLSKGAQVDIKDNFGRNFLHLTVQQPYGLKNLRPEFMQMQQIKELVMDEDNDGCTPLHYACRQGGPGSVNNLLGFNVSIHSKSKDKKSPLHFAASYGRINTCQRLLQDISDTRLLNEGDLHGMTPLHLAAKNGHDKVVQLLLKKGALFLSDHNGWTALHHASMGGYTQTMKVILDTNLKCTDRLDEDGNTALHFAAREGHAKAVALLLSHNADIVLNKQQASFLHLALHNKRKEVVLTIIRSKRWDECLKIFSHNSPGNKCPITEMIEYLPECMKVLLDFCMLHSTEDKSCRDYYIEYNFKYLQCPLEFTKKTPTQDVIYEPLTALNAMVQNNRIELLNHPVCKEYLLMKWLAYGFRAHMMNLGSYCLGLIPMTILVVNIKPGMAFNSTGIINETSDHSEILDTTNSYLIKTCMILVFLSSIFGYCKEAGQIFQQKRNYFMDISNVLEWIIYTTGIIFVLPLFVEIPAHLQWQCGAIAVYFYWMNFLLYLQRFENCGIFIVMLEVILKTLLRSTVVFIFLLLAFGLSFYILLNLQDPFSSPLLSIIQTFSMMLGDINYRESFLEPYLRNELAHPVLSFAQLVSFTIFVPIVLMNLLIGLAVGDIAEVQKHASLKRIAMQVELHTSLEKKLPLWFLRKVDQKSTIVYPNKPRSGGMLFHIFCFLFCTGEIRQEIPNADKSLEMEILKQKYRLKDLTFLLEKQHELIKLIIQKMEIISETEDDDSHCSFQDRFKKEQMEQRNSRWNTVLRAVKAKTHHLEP

Row | SMILES | mean maximal Ca^2+ signal RFU achieved 0-180 s (SD), TRPA1 (TRPA1) | mean maximal Ca^2+ signal RFU achieved 0-180 s (SD), TRPV1 (TRPV2)
1 | CCCCCc1cc(O)c(C/C=C(\C)CCC=C(C)C)c(O)c1 [CBG, Cannabigerol] | 10.22 (1.29) RFU | 2.19 (0.62) RFU
2 | C=C(C)[C@@H]1CCC(C)=C[C@H]1c1c(O)cc(CCC)cc1O [CBDV, Cannabidivarin] | 16.17 (2.68) RFU | 13.07 (0.03) RFU
3 | CCCCCc1cc(O)c2c(c1)OC(C)(C)c1ccc(C)cc1-2 [CBN, Cannabinol] | 10.97 (0.4) RFU | 4.03 (0.64) RFU
4 | C=C(C)[C@@H]1CCC(C)=C[C@H]1c1c(O)cc(CCCCC)cc1O [CBD, Cannabidiol] | 1.28 (0.03) RFU | 12.53 (0.28) RFU
